# Reference: patent US20240374598A1, “INHIBITORS OF HUMAN IMMUNODEFICIENCY VIRUS REPLICATION” (ViiV HEALTHCARE UK (NO.5) LIMITED, priority 2018, published 2024)
# How the values were obtained:
# [1] = Compound cytotoxicity, XTT-based colorimetric assay; assay type: cell-based; conditions: human; uninfected MT2 cells, day 4, XTT assay
# Method: Compound cytotoxicity and the corresponding CC50 values were determined using the same protocol as described in the antiviral assay except that uninfected cells were used. Cytotoxicity was assessed on day 4 in uninfected MT2 cells by using a XTT (2,3-bis[2-Methoxy-4-nitro-5-sulfophenyl]-2H-tetrazolium-5-carboxyanilide inner salt)-based colorimetric assay (Sigma-Aldrich, St Louis, Mo).
# [2] = system: recombinant NL4-3 virus (nef section replaced with Renilla luciferase gene) in MT-2 cells; test: HIV cell culture assay (antiviral activity, luciferase readout); assay type: cell-based; conditions: NL43, MT-2 cells infected for 4-5 days with recombinant NL4-3 Renilla luciferase virus
# Outline: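 MT-2 cells were infected for 4–5 days with NL4-3 reporter virus carrying Renilla luciferase in place of part of nef, in the presence of serially diluted compound. Luciferase activity, read with a live-cell substrate, gave percent inhibition; EC50 derived from the median effect equation.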
compound,measurement,setting,value
"Cn1nc(NS(C)(=O)=O)c2c(Cl)ccc(-n3c([C@H](Cc4cc(F)cc(F)c4)NC(=O)Cn4nc(C(F)F)c5c4C(F)(F)[C@@H]4C[C@H]54)nc4cc(C5CCCCC5)ccc4c3=O)c21 [Example 34, N—((S)-1-(3-(4-chloro-1-methyl-3-(methylsulfonamido)-H-indazol-7-yl)-7-cyclohexyl-4-oxo-3,4-dihydroquinazoin-2-yl)-2-(3,5-difluorophenyl)ethyl)-2-((3bS,4aR)-3-(difluoromethyl)-5,5-difluoro-3b,4,4a,5-tetrahydro-1H-cyclopropa[3,4]cyclopenta[1,2-c]pyrazol-1-yl)acetamide]",CC50 at 4 day,[1],> 1000 nM
same,EC50,[2],0.597 nM
"COc1ccc2c(=O)n(-c3ccc(Cl)c4c(NS(C)(=O)=O)nn(C)c34)c([C@H](Cc3cc(F)cc(F)c3)NC(=O)Cn3ccc(C(C)C)n3)nc2n1 [Example 35, (S)—N-(1-(3-(4-chloro-1-methyl-3-(methylsulfonamido)-1H-indazol-7-yl)-7-methoxy-4-oxo-3,4-dihydropyrido[2,3-d]pyrimidin-2-yl)-2-(3,5-difluorophenyl)ethyl)-2-(3-isopropyl-1H-pyrazol-1-yl)acetamide]",CC50 at 4 day,[1],> 1000 nM
same,EC50,[2],0.235 nM
"COc1ccc2c(=O)n(-c3ccc(Cl)c4c(NS(C)(=O)=O)nn(C)c34)c([C@H](Cc3cc(F)cc(F)c3)NC(=O)Cn3ccc(C4CC4)n3)nc2n1 [Example 36, (S)—N-(1-(3-(4-chloro-1-methyl-3-(methylsulfonamido)-1H-indazol-7-yl)-7-methoxy-4-oxo-3,4-dihydropyrido[2,3-d]pyrimidin-2-yl)-2-(3,5-difluorophenyl)ethyl)-2-(3-cyclopropyl-1H-pyrazol-1-yl)acetamide]",CC50 at 4 day,[1],> 1000 nM
same,EC50,[2],0.131 nM
